Assay results reported in ChEMBL document CHEMBL1201862, “PubChem BioAssay data set” (2004).
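Cultured in 96-well plates, cells were exposed to test compound for 48 hours across five concentrations. GI50: concentration for 50% inhibition of growth.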 Active and inactive are the calls of the source. Cut-off read from the data, not from the text of the source: active = GI50 up to about 1.1 µM and inactive = higher.

Key:
Assay in all cases: NCI tumour cell line growth inhibition, 48 h
786-0 = tested on: 786-0
A498 = tested on: A498
ACHN = tested on: ACHN
BT-549 = tested on: BT-549
CAKI-1 = tested on: CAKI-1
COLO 205 = tested on: COLO 205
DU-145 = tested on: DU-145
Hs-578T = tested on: Hs-578T
IGROV-1 = tested on: IGROV-1
K562 = tested on: K562
MCF7 = tested on: MCF7
NCI-H522 = tested on: NCI-H522
SK-MEL-2 = tested on: SK-MEL-2
SW-620 = tested on: SW-620
TK-10 = tested on: TK-10
UACC-257 = tested on: UACC-257
UACC-62 = tested on: UACC-62
HCC 2998 = tested on: HCC 2998
SNB-19 = tested on: SNB-19

Measured: GI50

Cc1ccc2c(/C=C/c3ccc(N(C)C)cc3)ccc(C(C)C)cc1-2
inactive: 786-0 > 100 µM | A498 83.4 µM | ACHN > 100 µM | BT-549 > 100 µM | CAKI-1 > 100 µM | COLO 205 > 100 µM | DU-145 > 100 µM | Hs-578T > 100 µM | IGROV-1 > 100 µM | K562 > 100 µM | MCF7 > 100 µM | NCI-H522 99.3 µM | SK-MEL-2 > 100 µM | SW-620 > 100 µM | TK-10 > 100 µM | UACC-257 48.9 µM | UACC-62 > 100 µM

Cn1c(N=[N+]=[N-])cc(=O)n(C)c1=O
inactive: 786-0 > 100 µM | A498 > 100 µM | ACHN > 100 µM | BT-549 > 100 µM | CAKI-1 > 100 µM | COLO 205 > 100 µM | HCC 2998 > 100 µM | Hs-578T > 100 µM | IGROV-1 > 100 µM | K562 > 100 µM | NCI-H522 > 100 µM | SK-MEL-2 > 100 µM | SNB-19 > 100 µM | SW-620 > 100 µM | TK-10 > 100 µM | UACC-257 > 100 µM | UACC-62 > 100 µM

O=C1N(c2ccccc2)N=C2c3ccncc3C3=NN(c4ccccc4)C(=O)C123 (centres undefined)
active: K562 0.252 µM
inactive: 786-0 > 100 µM | A498 > 100 µM | ACHN > 43.6 µM | BT-549 > 48.4 µM | COLO 205 2.12 µM | HCC 2998 6.68 µM | Hs-578T > 100 µM | IGROV-1 > 51.9 µM | MCF7 > 35.6 µM | NCI-H522 > 100 µM | SK-MEL-2 > 100 µM | SNB-19 > 100 µM | SW-620 2.53 µM | TK-10 > 100 µM | UACC-257 27.1 µM | UACC-62 5.57 µM

O=C(NC(=S)Nc1ccc([N+](=O)[O-])cc1)c1ccc2c(c1)Sc1ccccc1O2
inactive: 786-0 44.8 µM | A498 > 100 µM | ACHN 49.9 µM | BT-549 > 100 µM | CAKI-1 > 100 µM | COLO 205 > 100 µM | DU-145 > 100 µM | Hs-578T 32.8 µM | IGROV-1 98.2 µM | K562 > 100 µM | MCF7 > 100 µM | NCI-H522 48.1 µM | SK-MEL-2 99.1 µM | SNB-19 53.3 µM | SW-620 > 100 µM | TK-10 44.2 µM | UACC-257 > 100 µM | UACC-62 71.3 µM
